The source made the active and inactive calls. The calls are words filed in the database; no cut-off is given here.
Key:
Mus musculus [1] = assay: Anticonvulsant activity in Maximal electroshock seizure test at 100 mg/kg i.p. in mice.; type: functional, organism-based; set-up: dose 100 mg/kg
Mus musculus [2] = assay: The compound was tested for anticonvulsant activity in subcutaneous pentylenetetrazole seizure test (sc Met) for 30 min in mice; activity at 300 mg/kg; type: functional, organism-based; set-up: dose 300 mg/kg
Mus musculus [3] = assay: The compound was tested for anticonvulsant activity in Maximal electroshock seizure test for 4 hr in mice(ip); active at 300 mg/kg; type: functional, organism-based; set-up: dose 300 mg/kg
Mus musculus [4] = assay: The compound was tested for anticonvulsant activity in subcutaneous pentylenetetrazole seizure test (sc Met) for 4 hr in mice; activity at 300 mg/kg; type: functional, organism-based; set-up: dose 300 mg/kg
[5] = The compound was tested for neurologic toxicity (rotarod) test for 4 hr in mice; no activity or toxicity at 300 mg/kg; type: organism-based; set-up: dose 300 mg/kg; conditions: mouse, in vivo
[6] = The compound was tested for neurologic toxicity (rotarod) test for 30 min in mice; activity at 100 mg/kg; type: organism-based; set-up: dose 100 mg/kg; conditions: mouse, in vivo, 0.5 h
Rattus norvegicus [7] = assay: The compound was tested peroral dose of 30 mg/kg for 0.25 hours for maximal electroshock test on rats; MES= 3/4; type: functional; conditions: route oral
Mus musculus [8] = assay: Inhibition of s.c. pentylenetetrazole induced seizure in mice following i.p. administration.; type: functional
Rattus norvegicus [9] = assay: The compound was tested for the effective oral dose to inhibit 50% of the anticonvulsant in rats.(Value in parenthesis indicate 95% confidence limits); type: functional
Rattus norvegicus [10] = species on record: Rattus norvegicus; assay: Protective index value is the ratio between ED50 and TD50; type: functional
[11] = The compound was tested for time of peak effect (TPE) in hours for its toxicity in mice on ip administration.; type: organism-based; conditions: mouse, in vivo
Mus musculus [12] = assay: Anticonvulsant activity in subcutaneous pentylenetetrazole seizure test for 30 min in mice; No activity/toxicity at 300 mg/kg.; type: functional, organism-based; set-up: dose 300 mg/kg
Mus musculus [13] = assay: The anticonvulsant activity in subcutaneous pentylenetetrazole seizure test (sc Met) for 4 hr in mice; no activity or no toxicity at 300 mg/kg; type: functional, organism-based; set-up: dose 300 mg/kg
Rattus norvegicus [14] = assay: The compound was tested peroral dose of 30 mg/kg for 0.5 hours for maximal electroshock test on rats; MES= 3/4; type: functional; conditions: route oral
Rattus norvegicus [15] = assay: The compound was tested peroral dose of 30 mg/kg for 2 hours for rotarod toxicity; 0/4; type: functional; conditions: route oral
Sigma 2 receptor = assay: Affinity on sigma 2 receptor using [3H]- DTG as radioligand
Rattus norvegicus [16] = assay: The compound was tested peroral dose of 30 mg/kg for 0.5 hours for rotarod toxicity; 0/4; type: functional; conditions: route oral
Rattus norvegicus [17] = assay: The compound was tested peroral dose of 30 mg/kg for 1 hour for rotarod toxicity; 0/4; type: functional; conditions: route oral
Mus musculus [18] = assay: The compound was tested for anticonvulsant activity in Maximal electroshock seizure test (MES) for 4 hr in mice(ip); no activity or toxicity at 300 mg/kg; type: functional, organism-based; set-up: dose 300 mg/kg
Rattus norvegicus [19] = assay: The compound was tested peroral dose of 30 mg/kg for 2 hours for maximal electroshock test on rats; MES= 0/4; type: functional; conditions: route oral
Rattus norvegicus [20] = assay: The compound was tested peroral dose of 30 mg/kg for 4 hours for maximal electroshock test on rats; MES= 1/4; type: functional; conditions: route oral
Rattus norvegicus [21] = assay: The compound was tested for the toxic dose on oral administration.; type: functional
Mus musculus [22] = assay: The compound was tested to inhibit 50% of induced maximal electroshock seizure in mice on ip administration.; type: functional
[23] = The compound was tested for neurologic toxicity (rotarod) test for 30 min in mice; active at 300 mg/kg; type: organism-based; set-up: dose 300 mg/kg; conditions: mouse, in vivo, 0.5 h
Mus musculus [24] = assay: The compound was determined for the dose (mg/kg) by rotarod test at the time of peak neurotoxic effect in mice on ip administration.; type: functional
[25] = target: Sigma non-opioid intracellular receptor 1 (Homo sapiens) (UniProt Q99720); assay: Ratio between the Ki(nM)values of sigma-2 and sigma-1; type: functional
Rattus norvegicus [26] = assay: The compound was tested peroral dose of 30 mg/kg for 1 hour for maximal electroshock test on rats; MES= 1/4; type: functional; conditions: route oral
Mus musculus [27] = assay: Time of peak effect in mice following i.p. administration.; type: functional
Rattus norvegicus [28] = assay: The compound was tested peroral dose of 30 mg/kg for 4 hours for rotarod toxicity; 0/4; type: functional; conditions: route oral
[29] = The compound was tested for neurologic toxicity (rotarod) test for 4 hours in mice; no activity or no toxicity at 300 mg/kg; type: organism-based; set-up: dose 300 mg/kg; conditions: mouse, in vivo
Rattus norvegicus [30] = assay: The compound was tested peroral dose of 30 mg/kg for 0.25 hours for rotarod toxicity; 0/4; type: functional; conditions: route oral
Mus musculus [31] = assay: The compound was tested for anticonvulsant activity in Maximal electroshock seizure test for 30 min in mice(ip); active at 30 mg/kg; type: functional, organism-based; set-up: dose 30 mg/kg
Mus musculus [32] = assay: The compound was tested for anticonvulsant activity in Maximal electroshock seizure test (MES) for 4 hr in mice(ip); active at 300 mg/kg; type: functional, organism-based; set-up: dose 300 mg/kg
[33] = The compound was tested for neurologic toxicity (rotarod) test for 4 hours in mice; active at 100 mg/kg; type: organism-based; set-up: dose 100 mg/kg; conditions: mouse, in vivo
Rattus norvegicus [34] = assay: The compound was tested for the toxic dose on oral administration; type: functional
Mus musculus [35] = assay: The compound was tested to inhibit 50% of induced subcutaneous pentylenetetrazole seizure in mice on ip administration; type: functional

Chain of Sigma non-opioid intracellular receptor 1 (Homo sapiens) (Q99720 whole entry): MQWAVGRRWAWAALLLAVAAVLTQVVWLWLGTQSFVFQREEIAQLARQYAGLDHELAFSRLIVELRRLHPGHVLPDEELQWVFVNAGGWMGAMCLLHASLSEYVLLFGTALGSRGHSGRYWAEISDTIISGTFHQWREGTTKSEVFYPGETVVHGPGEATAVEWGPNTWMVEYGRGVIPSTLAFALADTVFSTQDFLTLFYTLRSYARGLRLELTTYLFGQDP

CCCCC(=O)c1ccc2c(c1)sc(=O)n2C(C)=O
MES (Mus musculus [1]): active at 300 mg/kg | scMet (Mus musculus [2]): activity at 300 mg/kg | MES (Mus musculus [3]): active at 300 mg/kg | scMet (Mus musculus [4]): activity at 300 mg/kg | Rotarod toxicity [5]: activity at 100 mg/kg | Rotarod toxicity [6]: activity at 100 mg/kg

CCCc1ccc2c(c1)sc(=O)n2CCN1CCCCC1
Protected/Tested (Rattus norvegicus [7]): 3 | ED50 (Mus musculus [8]): > 75 mg/kg | ED50 (Rattus norvegicus [9]): 18.6 mg/kg | PI (Rattus norvegicus [10]): 26.9 | Toxicity [11]: 0.25 h | scMet (Mus musculus [12]): No activity or no toxicity at 300 mg/kg | scMet (Mus musculus [13]): No activity or no toxicity at 300 mg/kg | Protected/Tested (Rattus norvegicus [14]): 3 | No. of animals exhibiting toxicity / Number of animals tested (Rattus norvegicus [15]): 0 | Ki (Sigma 2 receptor): 18.1 nM | No. of animals exhibiting toxicity / Number of animals tested (Rattus norvegicus [16]): 0 | No. of animals exhibiting toxicity / Number of animals tested (Rattus norvegicus [17]): 0 | MES (Mus musculus [18]): active at 30 mg/kg | Protected/Tested (Rattus norvegicus [19]): 0 | Protected/Tested (Rattus norvegicus [20]): 1 | TD50 (Rattus norvegicus [21]): < 500 mg/kg | ED50 (Mus musculus [22]): 7.6 mg/kg | Rotarod toxicity [23]: active at 300 mg/kg | TD50 (Mus musculus [24]): 29.4 mg/kg | Ratio [25]: 29 | Protected/Tested (Rattus norvegicus [26]): 1 | Activity (Mus musculus [27]): 0.25 h | No. of animals exhibiting toxicity / Number of animals tested (Rattus norvegicus [28]): 0 | Rotarod toxicity [29]: active at 300 mg/kg | No. of animals exhibiting toxicity / Number of animals tested (Rattus norvegicus [30]): 0 | MES (Mus musculus [31]): active at 30 mg/kg

O=C(c1ccccc1)c1ccc2c(c1)sc(=O)n2CCN1CCCC1
MES (Mus musculus [1]): active at 300 mg/kg | MES (Mus musculus [32]): active at 300 mg/kg | ED50 (Mus musculus [8]): > 210 mg/kg | Toxicity [11]: 0.25 h | scMet (Mus musculus [12]): No activity or no toxicity at 300 mg/kg | scMet (Mus musculus [13]): No activity or no toxicity at 300 mg/kg | Ki (Sigma 2 receptor): 225 nM | Rotarod toxicity [33]: active at 100 mg/kg | ED50 (Mus musculus [22]): 42.5 mg/kg | Rotarod toxicity [23]: active at 100 mg/kg | TD50 (Mus musculus [24]): 170 mg/kg | Ratio [25]: 4 | Activity (Mus musculus [27]): 0.25 h

O=C1NC(=O)C(c2ccccc2)(c2ccccc2)N1 [PHENYTOIN]
TD50 (Rattus norvegicus [34]): > 3000 mg/kg | ED50 (Mus musculus [35]): > 300 mg/kg

Reference: ChEMBL document CHEMBL1131315, “Synthesis and anticonvulsant activity of 2(3H)-benzoxazolone and 2(3H)-benzothiazolone derivatives” (J Med Chem, 1998)
